Results reported in patent publication US20140234502A1, “Treatment of Produce” (Rohm and Haas Company, priority 2009, published 2014).

Assays:
Assay type in all cases: in vivo, pear
[1] = test system: Packam's Pears; experiment: Firmness of Packam's pears by penetrometer after treatment, non-ambient storage and shelf life; settings: South Africa, ambient 5 days, listed as 600
Source text: (§1) Pears (Conference, William's/Bartlett, or Packam's) were harvested at maturity for long storage. Number of fruits and replicates were selected according to the size of the chamber in which to apply 1-MCP and according to the statistical design. Airtight containers in the range of 1 cubic meter were used for the application of both 1-MCP and ethylene. 1-MCP was released from SmartFresh™ powder that contained 0.14% 1-MCP by weight (obtained from AgroFresh, Inc.). The amount of that SmartFresh™ powder was chosen to yield the target atmospheric concentration of 1-MCP in the chosen container. For example, the 1-MCP released from 1000 mg of that SmartFresh™ powder in 1 cubic meter yielded 1-MCP concentration in the atmosphere of 625 ppb.
(§2) The chosen amount of SmartFresh™ powder was dissolved in water into a tight flask and shaken until all the powder was dissolved. The flask was then put it into the airtight container and opened, to release the 1-MCP. At the same time of the opening of the 1-MCP flask, ethylene was injected with a syringe into the airtight container. Ethylene was taken from a compressed tank at known concentration: either taken directly or released into a flask. In the latter case the concentration was measured by gas-chromatograph to determine the quantity of volume to inject into the airtight container to get the target concentration.
(§3) The exposure to atmosphere containing either 1-MCP alone or 1-MCP and ethylene was done on cold pears (already cooled down to non-ambient storage temperature) within a maximum of 7 days from harvest and lasted 24 hours. At the end of the application, the airtight container was vented for 15 minutes and the fruits were put into RA or CA storage. RA storage was at temperature of −1° C. to 1° C. and at relative humidity of 80% to 98%. CA storage had the same temperature and humidity of RA storage, had oxygen level of 1% to 3%, by volume based on the volume of the atmosphere and had carbon dioxide level of 0.5% to 2%, by volume based on the volume of the atmosphere.
In addition, samples of pears (from the same orchards from which pears treated with 1-MCP alone or 1-MCP and ethylene were harvested) were put into an airtight container for 24 hours at the temperature as the treated pears in order to reproduce the same environmental conditions. Then they were stored in the same rooms or in separated rooms in the same conditions of RA and CA as the treated pears. […]
Pears denoted with a single number (e.g., “300”) received 1-MCP treatment with that concentration, in ppb, of 1-MCP in the atmosphere (e.g., 300 ppb) and were not exposed to exogenous ethylene. […] Reported quantity is “firmness” (“F”), the penetrometer force in kgf. […]

[2] = test system: Conference Pears; experiment: Firmness of Conference pears by penetrometer after treatment, non-ambient storage and shelf life; design: key to SW France F (firmness) / Italy F (firmness) / Average F (firmness): penetrometer force in kgf (8 mm probe); settings: for ES A F (firmness): farm ES A; for ES B F (firmness): farm ES B; for IT F (firmness): farm IT; for firmness: Example 9, CA 6 months; for Italy F (firmness) / firmness: Italy; for Orchard #1 F (firmness) / Orchard #2 F (firmness) / Orchard #3 F (firmness): Example 11, Spain, RA 3 months
Source text: as §1, §2, §3
In addition, samples of pears (from the same orchards from which pears treated with 1-MCP alone or 1-MCP and ethylene were harvested) were put into an airtight container for 24 hours at the temperature as the treated pears in order to reproduce the same environmental conditions. Then they were stored in the same rooms or in separated rooms in the same conditions of RA and CA as the treated pears. These pears received no exposure to 1-MCP, exogenous ethylene, or any combination thereof, and they are labeled “control” below.
Length of non-ambient storage at present commercial temperature and storage regime was generally of 2-4 months in RA and 6 months in CA, unless otherwise specified, according to normal commercial practice.
All pears received the same progression of non-ambient storage followed by exposure to ambient conditions (“shelf life”).
Pears denoted with a single number (e.g., “300”) received 1-MCP treatment with that concentration, in ppb, of 1-MCP in the atmosphere (e.g., 300 ppb) and were not exposed to exogenous ethylene. Pears denoted with two numbers (e.g. “300+600”) were treated with both that concentration in ppb of 1-MCP and that concentration in ppb of ethylene (e.g., 300 ppb of 1-MCP and 600 ppb of ethylene). The firmness of pears was tested using commercial penetrometers with test probe of 8 mm diameter. Reported quantity is “firmness” (“F”), the penetrometer force in kgf.

[3] = test system: Conference Pears; experiment: Color rating of Conference pears; settings: ambient 5-8 days; for Italy color / SW France color: scale of 0 (green) to 5 (yellow)
Source text: as §1, §2, §3
Pears were tested for firmness, as described above, and were rated for color on a scale of 0 (green) to 5 (yellow).

[4] = test system: Conference Pears; experiment: Inspection of Conference pears for rot, bruising and internal browning
Source text: as §1, §2, §3
After RA storage, pears were exposed to ambient for the number of days shown below and then inspected for rot, bruising, and internal browning (“I.B.”). Results shown are the percentage of pears having the disorder.
Pears from SW France were examined as in Example 7, and the percent disordered fruit was as follows: […]

[5] = test system: Conference Pears; experiment: Examination of Conference pears for scald; settings: Example 9, CA 6 months; for percent with scald: Italy
Source text: as §1, §2, §3
Pears from Italy (the same pears whose firmness is reported herein above in Example 5) were examined for scald after exposure to ambient conditions for the number of days shown below.

[6] = test system: Pears (Conference, William's/Bartlett, or Packam's); experiment: Firmness of pears, summary over all Examples; settings: each of the Examples; samples exposed to 1-MCP and not to ethylene
Source text: as §1
The chosen amount of SmartFresh™ powder was dissolved in water into a tight flask and shaken until all the powder was dissolved. The flask was then put it into the airtight container and opened, to release the 1-MCP. […] In the latter case the concentration was measured by gas-chromatograph to determine the quantity of volume to inject into the airtight container to get the target concentration. […]
Pears denoted with a single number (e.g., “300”) received 1-MCP treatment with that concentration, in ppb, of 1-MCP in the atmosphere (e.g., 300 ppb) and were not exposed to exogenous ethylene. […] Reported quantity is “firmness” (“F”), the penetrometer force in kgf.

[7] = Example 3, RA 3 months, ambient 5 to 8 days
[8] = Example 4, CA 6 months, ambient 5 to 8 days
[9] = Example 5, RA 3 months, ambient 5-8 days
[10] = Example 6, CA 6 months, ambient 5-8 days
[11] = Example 7, RA 4 months, SW France, 13 ambient days
[12] = Example 8, CA 6 months, ambient 13 days, SW France

CC1=CC1 [600(C), 1-MCP]
8 weeks F (firmness) ([1]; RA for 8 weeks): 6.5 kgf
12 weeks F (firmness) ([1]; RA for 12 weeks): 6.3 kgf
AV F (firmness), average of the results from the seven farms [2, 7]: 5.7 kgf
ES A F (firmness) [2, 7]: 6.3 kgf
ES B F (firmness) [2, 7]: 6.3 kgf
FR A F (firmness) ([2]; Example 3, RA 3 months, ambient 5 to 8 days, farm FR A): 5.4 kgf
FR B F (firmness) ([2]; Example 3, RA 3 months, ambient 5 to 8 days, farm FR B): 5.2 kgf
IT F (firmness) [2, 7]: 5.7 kgf
NL A F (firmness) ([2]; Example 3, RA 3 months, ambient 5 to 8 days, farm NL A): 5.3 kgf
NL B F (firmness) ([2]; Example 3, RA 3 months, ambient 5 to 8 days, farm NL B): 5.6 kgf
Av F (firmness), average of the results from the six farms [2, 8]: 5.4 kgf
ES A F (firmness) [2, 8]: 6.1 kgf
ES B F (firmness) [2, 8]: 5.6 kgf
FR F (firmness) ([2]; Example 4, CA 6 months, ambient 5 to 8 days, farm FR): 5.1 kgf
IT F (firmness) [2, 8]: 4.9 kgf
NL A F (firmness) ([2]; Example 4, CA 6 months, ambient 5 to 8 days, farm NL A): 5.1 kgf
NL B F (firmness) ([2]; Example 4, CA 6 months, ambient 5 to 8 days, farm NL B): 5.7 kgf
Italy F (firmness) [2, 9]: 5.7
SW France F (firmness) [2, 9]: 5.2
Italy F (firmness) [2, 10]: 4.9
SW France F (firmness) [2, 10]: 5.1
Average F (firmness) ([2]; Example 6, CA 6 months, ambient 5-8 days, average of SW France and Italy): 5.0
firmness ([2]; 0 ambient days): 6.8 kgf
firmness ([2]; 7 ambient days): 4.9 kgf
Average F (firmness), average of the two orchards ([2]; Example 10, RA 3 months, ambient 5 days): 5.58 kgf
NL A F (firmness) ([2]; Example 10, RA 3 months, ambient 5 days, NL A): 5.65 kgf
NL B F (firmness) ([2]; Example 10, RA 3 months, ambient 5 days, NL B): 5.52 kgf
Orchard #1 F (firmness) ([2]; 0 days ambient): 5.95 kgf
Orchard #2 F (firmness) ([2]; 0 days ambient): 6.07 kgf
Orchard #3 F (firmness) ([2]; 0 days ambient): 6.46 kgf
Orchard #1 F (firmness) ([2]; 7 days ambient): 5.95 kgf
Orchard #2 F (firmness) ([2]; 7 days ambient): 6.03 kgf
Orchard #3 F (firmness) ([2]; 7 days ambient): 6.30 kgf
Orchard #1 F (firmness) ([2]; 12 days ambient): 5.75 kgf
Orchard #2 F (firmness) ([2]; 12 days ambient): 6.17 kgf
Orchard #3 F (firmness) ([2]; 12 days ambient): 6.58 kgf
Italy color ([3]; Example 5, RA 3 months): 2.1
SW France color ([3]; Example 5, RA 3 months): 2.95
Italy color ([3]; Example 6, CA 6 months): 3.4
SW France color ([3]; Example 6, CA 6 months): 2.65
Average color ([3]; Example 6, CA 6 months, average of SW France and Italy, scale 0 (green) to 5 (yellow)): 3.0
percentage of pears having internal browning (I.B.) ([4]; Example 7, RA 4 months, Loire, France, 11 ambient days): 0 percentage
percentage of pears having internal browning (I.B.) ([4]; Example 7, RA 4 months, Loire, France, 13 ambient days): 0 percentage
percentage of pears having internal browning (I.B.) ([4]; Example 7, RA 4 months, Loire, France, 15 ambient days): 0 percentage
percentage of pears having bruising [4, 11]: 0 percentage
percentage of pears having internal browning (I.B.) [4, 11]: 0 percentage
percentage of pears having rot [4, 11]: 0 percentage
percent disordered fruit: I.B. [4, 12]: 30%
percent disordered fruit: rot [4, 12]: 13%
percent with scald ([5]; 0 ambient days): 0%
percent with scald ([5]; 7 ambient days): 1%

CC1=CC1 [Sample 1-MCP, 1-MCP]
color rating (in words) ([3]; Example 6, CA 6 months, on average): undesirably too green color rating
percentage of disorders (in words) ([4]; Example 7, RA 4 months): lower percentage of disorders than the control pears
diseased fruits (in words) ([4]; Example 8, CA 6 months, ambient 13 days): fewer diseased fruits that the control sample
resistance to deterioration (in words) ([4]; Examples 7, 8, and 9): showed resistance to deterioration
pears with scald (in words) [5]: fewer pears with scald than the control group
firmness (in words) [6]: undesirably high
